Assay results: ChEMBL document CHEMBL5352508, “Discovery and Structure-Based Design of Inhibitors of the WD Repeat-Containing Protein 5 (WDR5)-MYC Interaction” (J Med Chem, 2023)
One block for each molecule: values may come before it. Activity calls are given as the source filed them. No cut-off for these calls is given here.

What was measured:
WDR5-MYC [1] = molecular target: T1, WDR5-MYC (Homo sapiens, UniProt P61964); test: Inhibition of N-terminal his-tagged WDR5 (1 to 334 residues) (unknown origin)/Biotin tagged Myc (256-268 residues) (unknown origin) interaction measured after 1 hrs by HTRF assay; assay type: protein assay
[2] = Apparent permeability of the compound in dog MDCKII-LE cells measured upto 1.5 hrs; assay type: ADME, cell-based, Canis lupus familiaris; conditions: MDCK
[3] = Microsomal stability in mouse liver microsome assessed as intrinsic clearance; assay type: ADME; conditions: liver microsomes, read-out: CLH
NCI-H520 = test: Antiproliferative activity against human NCI-H520 cells assessed as cell growth inhibition measured after 72 hrs by CellTier-Glo assay; assay type: functional
[4] = molecular target: T2, WD repeat-containing protein 5 (Homo sapiens, UniProt P61964); test: Inhibition of N-terminal his-tagged WDR5 (1 to 334 residues) (unknown origin) measured after 180 mins by HTRF assay
[5] = molecular target: T2, WD repeat-containing protein 5; test: Inhibition of N-terminal his-tagged WDR5 (1 to 334 residues) (unknown origin) measured after 10 mins by HTRF assay relative to control
HL-60 [6] = test: Antiproliferative activity against human HL-60 cells assessed as cell growth inhibition measured after 72 hrs by CellTier-Glo assay; assay type: functional
HL-60 [7] = test: Downregulation of RPL37A gene expression in human HL-60 cells measured after 24 hrs by RT-qPCR assay; assay type: functional, cell-based; conditions: dose 3-10 µM
[8] = molecular target: T3, Histone-lysine N-methyltransferase 2A/WDR5 (Homo sapiens) (UniProt P61964+Q03164); test: Inhibition of MLL/flag-tagged WDR5 interaction in HEK293T cells overexpressing flag-tagged WDR5 upto 30 uM incubated for 6 hrs by coimmunoprecipitation assay; assay type: cell-based
HL-60 [9] = test: Effect on Cdc20 mRNA expression in human HL-60 cells measured after 24 hrs by RT-qPCR assay; assay type: functional, cell-based
Daudi = test: Antiproliferative activity against human Daudi cells assessed as cell growth inhibition measured after 72 hrs by CellTier-Glo assay; assay type: functional
Ramos = test: Antiproliferative activity against human Ramos cells assessed as cell growth inhibition measured after 72 hrs by CellTier-Glo assay; assay type: functional
WDR5-MYC [10] = molecular target: T1, WDR5-MYC; test: Inhibition of WDR5 (unknown origin)/MYC (unknown origin) interaction; assay type: protein assay
[11] = molecular target: T3, Histone-lysine N-methyltransferase 2A/WDR5 (Homo sapiens); test: Inhibition of WDR5 (unknown origin)/MLL (unknown origin) interaction by NanoBiT assay; assay type: protein assay
[12] = molecular target: T2, WD repeat-containing protein 5; test: Inhibition of N-terminal his-tagged WDR5 (1 to 334 residues) (unknown origin) measured after 30 mins by HTRF assay relative to control
[13] = molecular target: T2, WD repeat-containing protein 5; test: Inhibition of N-terminal his-tagged WDR5 (1 to 334 residues) (unknown origin) measured after 90 mins by HTRF assay relative to control
HL-60 [14] = test: Effect on AURKB mRNA expression in human HL-60 cells measured after 24 hrs by RT-qPCR assay; assay type: functional, cell-based
NB-4 = test: Antiproliferative activity against human NB4 cells assessed as cell growth inhibition measured after 72 hrs by CellTier-Glo assay; assay type: functional
NCI-H1650 = test: Antiproliferative activity against human NCI-H1650 cells assessed as cell growth inhibition measured after 72 hrs by CellTier-Glo assay; assay type: functional
HL-60 [15] = test: Downregulation of RPL23 gene expression in human HL-60 cells measured after 24 hrs by RT-qPCR assay; assay type: functional, cell-based; conditions: dose 3-10 µM
HL-60 [16] = test: Downregulation of RPL35 gene expression in human HL-60 cells measured after 24 hrs by RT-qPCR assay; assay type: functional, cell-based; conditions: dose 3-10 µM
[17] = molecular target: T2, WD repeat-containing protein 5; test: Inhibition of N-terminal his-tagged WDR5 (1 to 334 residues) (unknown origin) measured after 90 mins by HTRF assay
[18] = molecular target: T2, WD repeat-containing protein 5; test: Inhibition of N-terminal his-tagged WDR5 (1 to 334 residues) (unknown origin) measured after 10 mins by HTRF assay
[19] = molecular target: T2, WD repeat-containing protein 5; test: Inhibition of N-terminal his-tagged WDR5 (1 to 334 residues) (unknown origin) measured after 360 mins by HTRF assay relative to control
COR-L279 = test: Antiproliferative activity against human COR-L279 cells assessed as cell growth inhibition measured after 72 hrs by CellTier-Glo assay; assay type: functional
HL-60 [20] = test: Downregulation of RPL17 gene expression in human HL-60 cells measured after 24 hrs by RT-qPCR assay; assay type: functional, cell-based; conditions: dose 3-10 µM
WDR5-MYC (Homo sapiens) = WDR5-MYC (Homo sapiens) (UniProt P61964+P01106); test: Inhibition of flag-tagged WDR5/endogenous MYC interaction in HEK293T cells overexpressing flag tagged WDR5 incubated for 6 hrs by coimmunoprecipitation assay; assay type: cell-based; conditions: dose 5-30 µM
[21] = molecular target: T2, WD repeat-containing protein 5; test: Inhibition of N-terminal his-tagged WDR5 (1 to 334 residues) (unknown origin) measured after 360 mins by HTRF assay
SHP77 = test: Antiproliferative activity against human SHP77 cells assessed as cell growth inhibition measured after 72 hrs by CellTier-Glo assay; assay type: functional
HEK293T = test: Inhibition of RBBP5/flag-tagged WDR5 interaction in HEK293T cells overexpressing flag-tagged WDR5 upto 30 uM incubated for 6 hrs by coimmunoprecipitation assay; assay type: cell-based; conditions: Homo sapiens
[22] = molecular target: T2, WD repeat-containing protein 5; test: Inhibition of N-terminal his-tagged WDR5 (1 to 334 residues) (unknown origin) measured after 30 mins by HTRF assay
WDR5-MYC [23] = molecular target: T1, WDR5-MYC; test: Inhibition of his-tagged WDR5/flag-tagged MYC interaction overexpressed in HEK293T cells incubated for 5 hrs; assay type: cell-based
HL-60 [24] = test: Effect on MCM4 mRNA expression in human HL-60 cells measured after 24 hrs by RT-qPCR assay; assay type: functional, cell-based
HL-60 [25] = test: Effect on MCM10 mRNA expression in human HL-60 cells measured after 24 hrs by RT-qPCR assay; assay type: functional, cell-based
[26] = molecular target: T2, WD repeat-containing protein 5; test: Inhibition of N-terminal his-tagged WDR5 (1 to 334 residues) (unknown origin) measured after 180 mins by HTRF assay relative to control

SMILES: Cc1cc(=O)c(C(=O)NCc2c(F)cc(-c3cccc(S(=O)(=O)F)c3)cc2F)nn1-c1cccc(C(=O)O)c1
IC50 (WDR5-MYC [1]): 0.19 µM

SMILES: Cc1cc(=O)c(C(=O)NCc2c(F)cc(-c3cccc(C(=O)O)c3)cc2F)nn1-c1ccccc1
IC50 (WDR5-MYC [1]): 2.48 µM

SMILES: CCCC[C@@H](Cc1c(F)cc(-c2cccc(S(=O)(=O)F)c2)cc1F)C(=O)Nc1nnn[nH]1
Papp at 1.5 h [2]: 0.96 ×10⁻⁶ cm/s | microsomal CLint [3]: 150 µL/min/mg

SMILES: Cc1cc(=O)c(C(=O)NCc2c(F)cc(-c3cccc(S(=O)(=O)F)c3)cc2F)nn1-c1ccccc1
GI50 (NCI-H520): 9.4 µM | IC50 [4]: 0.17 µM | Papp at 1.5 h [2]: 1.77 ×10⁻⁶ cm/s | inhibition [5]: 59.3% | GI50 (HL-60 [6]): 4.6 µM | Activity (HL-60 [7]): Dose-Dependent Effect | inhibition [8]: inactive | Activity (HL-60 [9]): inactive | GI50 (Daudi): 15.4 µM | GI50 (Ramos): 4.3 µM | IC50 (WDR5-MYC [10]): 5.8 µM | inhibition [11]: inactive | inhibition [12]: 64% | inhibition [13]: 78.5% | Activity (HL-60 [14]): inactive | GI50 (NB-4): 7.1 µM | GI50 (NCI-H1650): 22.6 µM | Activity (HL-60 [15]): Dose-Dependent Effect | microsomal CLint [3]: 46.9 µL/min/mg | Activity (HL-60 [16]): Dose-Dependent Effect | IC50 [17]: 0.3 µM | IC50 [18]: 2.09 µM | inhibition [19]: 91.9% | GI50 (COR-L279): 4.2 µM | Activity (HL-60 [20]): Dose-Dependent Effect | inhibition (WDR5-MYC (Homo sapiens)): Dose-Dependent Effect | IC50 [21]: 0.1 µM | GI50 (SHP77): 16.6 µM | inhibition (HEK293T): inactive | IC50 [22]: 0.79 µM | IC50 (WDR5-MYC [23]): 4.8 µM | Activity (HL-60 [24]): inactive | Activity (HL-60 [25]): inactive | IC50 (WDR5-MYC [1]): 0.39 µM | inhibition [26]: 88.5%

SMILES: Cc1cc(=O)c(C(=O)NCc2c(F)cc(-c3cccc(CO)c3)cc2F)nn1-c1ccccc1
IC50 (WDR5-MYC [1]): 5.69 µM

SMILES: Cc1cc(=O)c(C(=O)NCc2c(F)cc(-c3cccnc3)cc2F)nn1-c1ccccc1
IC50 (WDR5-MYC [1]): 4.45 µM

SMILES: Cc1cc(=O)c(C(=O)NCc2c(F)cc(N3CC[C@@H](F)C3)cc2F)nn1-c1cccc(CC(N)=O)c1
IC50 (WDR5-MYC [1]): 3.15 µM

More lines, now with the values ahead:

IC50 (WDR5-MYC [1]): 1.2 µM
SMILES: Cc1cc(=O)c(C(=O)NCc2c(F)cc(N3CC[C@H](F)C3)cc2F)nn1-c1ccccc1

IC50 (WDR5-MYC [1]): 1.93 µM
SMILES: Cc1cc(=O)c(C(=O)NCc2c(F)cc(N3CC[C@@H](F)C3)cc2F)nn1-c1cccc(C(N)=O)c1

IC50 (WDR5-MYC [1]): 1.58 µM
SMILES: Cc1cc(=O)c(C(=O)NCc2c(F)cc(C3=CC(=O)CCC3)cc2F)nn1-c1ccccc1

IC50 (WDR5-MYC [1]): 3.83 µM
SMILES: Cc1cc(=O)c(C(=O)NCc2c(F)cc(C3CCCOC3)cc2F)nn1-c1ccccc1 (centres undefined)

IC50 (WDR5-MYC [1]): 0.95 µM
SMILES: Cc1cc(=O)c(C(=O)NCc2c(F)cc(N3CC[C@H](F)C3)cc2F)nn1-c1cccc(C(N)=O)c1

IC50 (WDR5-MYC [1]): 0.82 µM
SMILES: Cc1cc(=O)c(C(=O)NCc2c(F)cc(N3CCCC(F)(F)C3)cc2F)nn1-c1ccccc1

IC50 (WDR5-MYC [1]): 3.24 µM
SMILES: Cc1cc(=O)c(C(=O)NCc2c(F)cc(N3CCOCC3)cc2F)nn1-c1ccccc1
